Test system: DU-145 cells
Format: cell-based, Human

Structure (SMILES): C=C1[C@@H](C)[C@H]2[C@H](Cc3ccccc3)NC(=O)[C@]23[C@H](OC(C)=O)/C=C/[C@@](C)(O)C(=O)[C@@H](C)C/C=C/[C@H]3[C@@H]1O [Cytochalasin-D]
- Relative Wound Density at 24 Hours, Mean: 3.3 ± 0.2
- Relative Wound Density at 24 Hours, Percent Relative to Media: 4%
- effect on cell migration: did not migrate
